ChEMBL document CHEMBL1131678, “Arachidonic acid amide inhibitors of gap junction cell-cell communication” (1999)

How the values were obtained:
Rattus norvegicus [1] = organism: Rattus norvegicus; assay: Inhibition of rat glial cell gap junction at the concentration of 50 uM; assay type: functional
Rattus norvegicus [2] = organism: Rattus norvegicus; assay: Tested for inhibition of rat glial cell gap junction at the concentration of 20 uM; assay type: functional

SMILES	inhibition at 50 µM (Rattus norvegicus [1]) [%]	inhibition at 20 µM (Rattus norvegicus [2]) [%]
CCCCC/C=C\C/C=C\C/C=C\C/C=C\CCCC(=O)NC	100	–
CCCCC/C=C\C/C=C\C/C=C\C/C=C\CCCC(=O)NC(C)C	100	–
C=CCNC(=O)CCC/C=C\C/C=C\C/C=C\C/C=C\CCCCC	90	–
CCCCCCCC/C=C\CCCCCCCC(=O)O [OLEIC ACID]	0	0
CCCCC/C=C\C/C=C\C/C=C\C/C=C\CCCC(=O)N(C)OC	100	–
CCCCC/C=C\C/C=C\C/C=C\C/C=C\CCCC(=O)N(CC)CC	100	–
CCCCCCCC/C=C\CCCCCCCC(=O)N(C)C(C)C	100	–
CCCCC/C=C\C/C=C\C/C=C\C/C=C\CCCC(=O)NCCC	100	–
CCCCC/C=C\C/C=C\C/C=C\C/C=C\CCCC(=O)N(C)C	100	–
CCCCC/C=C\C/C=C\C/C=C\C/C=C\CCCC(=O)NCC	100	–
CCCCCCCC/C=C\CCCCCCCC(=O)NC(C)C	100	–
CCCCCCCC/C=C\CCCCCCCC(=O)NCCCc1ccccc1	0	–
CCCCCCCC/C=C\CCCCCCCC(=O)NCC	100	50
CCCCC/C=C\C/C=C\C/C=C\C/C=C\CCCC(N)=O [ARACHIDONAMIDE]	100	90
CCCCCCCC/C=C\CCCCCCCC(=O)NC1CC1	100	–
CCCCC/C=C\C/C=C\C/C=C\C/C=C\CCCC(=O)N(CCC)CCC	10	–
CCCCCCCC/C=C\CCCCCCCC(=O)N(C)OC	100	100
CCCCCCCC/C=C\CCCCCCCC(=O)N(CCO)CCO	8	0
CCCCC/C=C\C/C=C\C/C=C\C/C=C\CCCC(=O)N(CCO)CCO	0	0

SMILES	inhibition at 50 µM (Rattus norvegicus [1]) [%]	inhibition at 20 µM (Rattus norvegicus [2]) [%]
CCCCC/C=C\C/C=C\C/C=C\C/C=C\CCCC(=O)NCCO [ANANDAMIDE]	100	35
CCCCCCCC/C=C\CCCCCCCC(=O)NO	100	–
CCCCCCCC/C=C\CCCCCCCC(N)=O [OLEAMIDE]	100	100
CCCCCCCC/C=C\CCCCCCCC(=O)NCCCO	100	–
CCCCCCCC/C=C\CCCCCCCC(=O)NC	100	70
CCCCCCCC/C=C\CCCCCCCC(=O)NCCCC	100	–
CCCCCCCC/C=C\CCCCCCCC(=O)N(C)C	100	70
CCCCC/C=C\C/C=C\C/C=C\C/C=C\CCCC(=O)N(C)C(C)C	100	–
CCCCC/C=C\C/C=C\C/C=C\C/C=C\CCCC(=O)O [ARACHIDONIC ACID]	0	0
CCCCCCCC/C=C\CCCCCCCC(=O)NCCC	90	50
CCCCCCCC/C=C\CCCCCCCC(=O)Nc1ccccc1 [OLEIC ACID ANILIDE]	0	–
CCCCC/C=C\C/C=C\C/C=C\C/C=C\CCCC(=O)NCCCC	10	–
CCCCC/C=C\C/C=C\C/C=C\C/C=C\CCCC(=O)NC1CC1	100	–
CCCCCCCC/C=C\CCCCCCCC(=O)NCCO [OLEOYLETHANOLAMIDE]	100	0
C=CCNC(=O)CCCCCCC/C=C\CCCCCCCC	100	–
CCCCC/C=C\C/C=C\C/C=C\C/C=C\CCCC(=O)N1CCCC1	100	–
CCCCCCCC/C=C\CCCCCCCC(=O)N(CC)CC	100	15
CCCCCCCC/C=C\CCCCCCCC(=O)N1CCCC1	100	0
